The results in this text go back to patent US20090312288A1 (TAKEDA PHARMACEUTICAL COMPANY LIMITED, priority 2008, published 2009).

Structures are written as SMILES.

Sequence of Aurora B/INCENP (Q96GD4 whole entry): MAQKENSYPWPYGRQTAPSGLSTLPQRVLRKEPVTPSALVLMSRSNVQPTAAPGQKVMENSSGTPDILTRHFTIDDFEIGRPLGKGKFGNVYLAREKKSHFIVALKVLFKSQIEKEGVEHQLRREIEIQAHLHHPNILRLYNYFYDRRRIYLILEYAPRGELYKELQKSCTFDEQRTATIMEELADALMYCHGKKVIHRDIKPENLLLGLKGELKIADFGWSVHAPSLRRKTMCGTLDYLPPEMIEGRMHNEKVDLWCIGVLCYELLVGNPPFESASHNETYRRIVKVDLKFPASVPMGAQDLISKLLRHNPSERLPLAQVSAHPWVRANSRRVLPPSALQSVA
Sequence of Aurora B/INCENP (Q9NQS7 whole entry partner): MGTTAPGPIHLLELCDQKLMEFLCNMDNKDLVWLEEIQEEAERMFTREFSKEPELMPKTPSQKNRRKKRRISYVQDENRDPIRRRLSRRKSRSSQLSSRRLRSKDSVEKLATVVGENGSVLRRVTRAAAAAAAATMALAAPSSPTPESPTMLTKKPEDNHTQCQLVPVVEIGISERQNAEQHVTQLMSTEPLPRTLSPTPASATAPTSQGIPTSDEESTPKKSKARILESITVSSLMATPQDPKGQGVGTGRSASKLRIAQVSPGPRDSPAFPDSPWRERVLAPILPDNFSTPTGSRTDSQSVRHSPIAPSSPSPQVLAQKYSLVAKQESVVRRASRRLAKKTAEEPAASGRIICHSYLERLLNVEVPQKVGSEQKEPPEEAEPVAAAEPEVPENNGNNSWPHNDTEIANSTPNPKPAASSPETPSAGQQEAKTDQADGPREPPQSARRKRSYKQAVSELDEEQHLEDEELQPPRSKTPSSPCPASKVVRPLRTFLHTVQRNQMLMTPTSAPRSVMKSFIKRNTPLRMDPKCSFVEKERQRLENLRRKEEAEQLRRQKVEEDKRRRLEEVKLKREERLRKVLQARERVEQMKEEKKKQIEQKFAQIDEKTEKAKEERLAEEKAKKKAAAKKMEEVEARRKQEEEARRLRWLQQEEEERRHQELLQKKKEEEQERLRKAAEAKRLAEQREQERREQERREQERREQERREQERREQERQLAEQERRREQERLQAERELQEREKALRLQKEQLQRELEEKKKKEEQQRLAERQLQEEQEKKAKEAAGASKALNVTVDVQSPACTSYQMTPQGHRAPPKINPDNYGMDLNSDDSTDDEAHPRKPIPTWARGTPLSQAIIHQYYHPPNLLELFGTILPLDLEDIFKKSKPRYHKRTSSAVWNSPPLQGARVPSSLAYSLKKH

For the assay, the target named is Aurora B/INCENP (Homo sapiens, UniProt Q96GD4). The assay is described as follows: Determination of inhibition of AIK: Aurora B/INCENP direct fluorescence polarization (IMAP) assay. It counts as biochemical. The settings on record: 10 uM ATP, 0.8 nM Aurora B/INCENP; values given as bins; read-out: IC50 of Exemplified Compounds Against AIK B. The method, then:
Detection of the reaction product is performed by addition of Progressive IMAP binding reagent (Molecular Devices). Reaction product may be determined quantitatively by FP using an Analyst HT plate reader (Molecular Devices) with an excitation wavelength at 485 nm and emission at 530 nm and using a Fluorescein 505 dichroic mirror.
The assay reaction may be initiated as follows: 2 ul of (3×) 300 nM Fl-Peptide/30 uM ATP was added to each well of the plate, followed by the addition of 2 ul of (3×) inhibitor (2 fold serial dilutions for 11 data points for each inhibitor) containing 15% DMSO. Two microliters of (3×) 2.4 nM AuroraB/INCENP solution may be added to initiate the reaction (final enzyme concentration was 0.8 nM for Aurora B/INCENP). The reaction mixture may then be incubated at room temperature for 45 min, and quenched and developed by addition of 20 ul of 1 to 400 diluted Progressive IMAP binding reagent in 1× proprietary Progressive IMAP binding buffer A. Fluorescence polarization readings of the resulting reaction mixtures may be measured after a 60-minute incubation at room temperature.
IC50 values may be calculated by non-linear curve fitting of the compound concentrations and fluorescent polarization values to the standard IC50 equation.
(Fluorescence polarisation rises when a labelled molecule tumbles more slowly, as on binding a larger partner.)
Turning to `CCS(=O)(=O)c1cccc(-c2cc(C(=O)N[C@@H]3CCCNC3)c(C)c3[nH]c4ncc(C)cc4c23)c1` [Compound 108, (R)-5-(3-(ethylsulfonyl)phenyl)-3,8-dimethyl-N-(piperidin-3-yl)-9H-pyrido[2,3-b]indole-7-carboxamide], the IC50 (as a rule, the point on the concentration scale where inhibition reaches its midpoint) was greater than 13 nM.

Regarding `CCS(=O)(=O)c1cccc(-c2cc(C(=O)NCCOCCO)c(C)c3[nH]c4ncc(C)cc4c23)c1` [Compound 111], the IC50 was 5.6 to 8.5 nM.

With `CCS(=O)(=O)c1cccc(-c2cc(C(=O)NCCN(C)C)c(C)c3[nH]c4ncc(C)cc4c23)c1` [Compound 113], the IC50 lay in the range of 8.6 to 13 nM.

In the case of `CCS(=O)(=O)c1cccc(-c2cc(C(=O)NCC3CCN(C)CC3)c(C)c3[nH]c4ncc(C)cc4c23)c1` [Compound 114, 5-(3-(ethylsulfonyl)phenyl)-3,8-dimethyl-N-((1-methylpiperidin-4-yl)methyl)-9H-pyrido[2,3-b]indole-7-carboxamide], the IC50 fell in the range of 5.6 to 8.5 nM.

With `CCS(=O)(=O)c1cccc(-c2cc(C(=O)NCCCN(C)C)c(C)c3[nH]c4ncc(C)cc4c23)c1` [Compound 115, N-(3-(dimethylamino)propyl)-5-(3-(ethylsulfonyl)phenyl)-3,8-dimethyl-9H-pyrido[2,3-b]indole-7-carboxamide], the IC50 fell in the range of 8.6 to 13 nM.

Consider `CCS(=O)(=O)c1cccc(-c2cc(C(=O)NCCN3CCCC3)c(C)c3[nH]c4ncc(C)cc4c23)c1` [Compound 116, 5-(3-(ethylsulfonyl)phenyl)-3,8-dimethyl-N-(2-(pyrrolidin-1-yl)ethyl)-9H-pyrido[2,3-b]indole-7-carboxamide], for which the IC50 lay within 8.6 to 13 nM.

Consider `Cc1cnc2[nH]c3c(C)c(C(=O)NC4CCN(C)CC4)cc(-c4cccc(NC(=O)C5CC5)c4)c3c2c1` [Compound 120, 5-(3-(cyclopropanecarboxamido)phenyl)-3,8-dimethyl-N-(1-methyl-piperidin-4-yl)-9H-pyrido[2,3-b]indole-7-carboxamide], for which the IC50 lay in the range of 5.6 to 8.5 nM.

Turning to `Cc1cnc2[nH]c3c(C)c(C(=O)NCCN(C)C)cc(-c4cccc(C(=O)NC5CC5)c4)c3c2c1` [Compound 122, 5-(3-(cyclopropylcarbamoyl)phenyl)-N-(2-(dimethylamino)ethyl)-3,8-dimethyl-9H-pyrido[2,3-b]indole-7-carboxamide], the IC50 is greater than 13 nM.

As to `CCS(=O)(=O)c1cccc(-c2cc(C(=O)OC)cc3[nH]c4ncc(C)cc4c23)c1` [Compound 133, 5-(3-Ethanesulfonyl-phenyl)-3-methyl-9H-pyrido[2,3-b]indole-7-carboxylic acid methyl ester], the IC50 fell in the range of 8.6 to 13 nM.

Turning to `CCS(=O)(=O)c1cccc(-c2cc(CO)cc3[nH]c4ncc(C)cc4c23)c1` [Compound 134, [5-(3-Ethanesulfonyl-phenyl)-3-methyl-9H-pyrido[2,3-b]indol-7-yl]-methanol], the half-inhibitory concentration (IC50) was less than 4 nM.

For the compound `CCS(=O)(=O)c1cccc(-c2cc(CN(C)C)cc3[nH]c4ncc(C)cc4c23)c1` [Compound 135, [5-(3-Ethanesulfonyl-phenyl)-3-methyl-9H-pyrido[2,3-b]indol-7-ylmethyl]-dimethyl-amine], the IC50 was greater than 13 nM.

In the case of `CCS(=O)(=O)c1cccc(-c2cc(CN3CCOCC3)cc3[nH]c4ncc(C)cc4c23)c1` [Compound 136, 5-(3-Ethanesulfonyl-phenyl)-3-methyl-7-morpholin-4-ylmethyl-9H-pyrido[2,3-b]indole], the IC50 is greater than 13 nM.

With `CCS(=O)(=O)c1cccc(-c2cc(CN3CCN(C)CC3)cc3[nH]c4ncc(C)cc4c23)c1` [Compound 137, 5-(3-Ethanesulfonyl-phenyl)-3-methyl-7-(4-methyl-piperazin-1-ylmethyl)-9H-pyrido[2,3-b]indole], the concentration for half-maximal inhibition (IC50) lay in the range of 8.6 to 13 nM.

In the case of `CCS(=O)(=O)c1cccc(-c2cc(CN3CCCC3)cc3[nH]c4ncc(C)cc4c23)c1` [Compound 138, 5-(3-Ethanesulfonyl-phenyl)-3-methyl-7-pyrrolidin-1-ylmethyl-9H-pyrido[2,3-b]indole], the IC50 was greater than 13 nM.
